Common to all, as to assay type: cell-based, human
Assay [1] has as its system NB4 cells. Nature of the assay: NB4 cell differentiation (TPA-induced nitroblue tetrazolium reduction). The method, then: NB4 cells were obtained from ATCC and were grown in RPMI-1640 (plus 2 mM L-glutamine) containing 100 […] penicillin and streptomycin and 8% fetal bovine serum (FBS). Cells were treated for four days with retinoid(s) or ethanol vehicle, then washed and resuspended at a density of 5×10^5 cells/ml. 50 microliter aliquots of this suspension were spread over poly-L-lysine coated slides (Sigma, St. Louis, Mo.). After washing with PBS (137 mM NaCl, 2.7 mM KCl, 4.3 mM Na2HPO4, 1.4 mM KH2PO4), the cells were fixed for 10 minutes in 2% formalin (37% formaldehyde in 15% methanol in water) at room temperature.
Following fixation, cells were washed three times in PBS and were scored by TPA (12-O-tetradecanoyl-phorbol-13-acetate, 200 ng/ml)-induced nitroblue tetrazolium reduction (Sigma Fast BCIP/NBT) for 30 minutes at 37° C. Samples were examined for cellular and nuclear morphology with an optical microscope (Diavert Leitz); the percentage of differentiated cells was determined by counting at least 300 cells for each treatment.

A further assay concerns RARβ2 and RARγ mRNA. Briefly: RARβ/RARγ expression by reverse transcriptase PCR in NB4 cells. To be noted: retinoid alone. As to the method:
Total RNA was isolated and reverse transcribed in a buffer solution comprising 10 mM Tris-HCl (pH 8.3), 50 mM KCl, 2 mM MgCl2 and 1 mM of all four deoxynucleoside triphosphates, using 25 units of AMV reverse transcriptase in the presence of 50 units of RNAsin for 60 minutes at 42° C. For reverse transcription, 25 picomoles per reaction of the common antisense primer 5′-[…]-3′ (SEQ ID NO:6) for either RARα, β or γ was used. For each PCR reaction the common antisense primer, one-fourth of the reverse transcribed product and the following specific sense primers were used: […]
The amplification was carried out in a final volume of 0.1 ml, using Taq DNA polymerase (Perkin Elmer Cetus) according the manufacturer's instructions. Eighteen PCR cycles (30 seconds at 94° C., 30 seconds at 65° C. and 30 seconds at 72° C.) were performed, and a 10 microliter aliquot of each reaction was analyzed by electrophoresis on a 6% native polyacrylamide gel, which was then stained with ethidium bromide and examined by ultraviolet illumination.

The subject of assay [2] is NB4 cells. Nature of the assay: NB4 cell apoptosis (flow cytometry, DNA fragmentation). To be noted: retinoid alone. As to the method:
The cell cycle distribution and presence of “sub-2N” cells and particles in control and retinoid-treated NB4 cells were determined by cell cycle flow cytometry based on DNA content, using an EPICS Profile II cell sorter (Coulter Electronics, Inc., Hialeah, Fla.) equipped with a 15 watt argon laser tuned to an excitation wavelength of 488 nm and filter sets providing an emission wavelength of 575 nm. Cultures of untreated or retinoid-treated cells were centrifuged (250×g) and fixed in 70% ethanol and stored at −20° C. Following two washes in PBS, the cells and subcellular particles were incubated in 1 mg/ml RNase A (59 Kunitz units/mg, Sigma Chemical Co., St. Louis, Mo.) for 30 minutes at 37° C., centrifuged and resuspended in PBS at a concentration of approximately 10^6 cells per ml. Ethidium bromide was added to a final concentration of 50 micrograms/ml immediately prior to sample analysis.
The induction of apoptosis by retinoids was also determined by the appearance of a “ladder” of fragmented DNA as previously described (Nagy, L., et al., Mol. Cell. Biol. 15:3540-3551 (1995)). Cells were refed with fresh media and retinoids every 2 days, and the cell density was maintained well below saturation in order to prevent cell death due to nutrient and/or mitogen depletion. Five micrograms per lane of DNA was electrophoresed in a 1.5% agarose gel, followed by staining with ethidium bromide, and DNA bands were visualized and photographed via ultraviolet illumination of ethidium bromide fluorescence.
Background: A flow cytometer gives signals particle by particle.

Setting [3] is: retinoid alone at 1 (concentration unit not given), 4 days.
[4] abbreviates: retinoid alone at 10 (concentration unit not given), 4 days.
Where [5] appears, read: retinoid alone at 100 (concentration unit not given), 4 days.
[6] abbreviates: retinoid alone at 1000 (concentration unit not given), 4 days.

From US6653322B1, “Therapeutic combinations of RAR antagonists and RXR agonists and use thereof” (Bristol-Myers Squibb Company, priority 1996, dated 2003) come the findings set out here.

As for `CC1(C)CCC(C)(C)c2cc(NC(=O)c3ccc(C(=O)O)cc3)ccc21` [Am80], the “Induction of NB4 cell differentiation” value is given as “significantly more efficient at inducing differentiation at low concentrations” with NB4 cells [1] (in presence of RXR agonist SR11237) and “efficiently induced differentiation” in the assay with NB4 cells [1] (retinoid on its own). Besides, the “Percentage of NB4 cells differentiated” value in the assay on NB4 cells [1] (retinoid alone at 0.1 (concentration unit not given), 4 days) is reported as <1%; in the assay on NB4 cells [1] (retinoid alone at 0.3 (concentration unit not given), 4 days) it was <1%; in the assay on NB4 cells [1] (retinoid alone at 0.5 (concentration unit not given), 4 days) it was <1%; in the assay with NB4 cells [1] (setting [3]) it was 80%; in the assay on NB4 cells [1] (setting [4]), 81%; in the assay on NB4 cells [1] (setting [5]) it was 80%. Moreover, the “Percentage of NB4 cells differentiated” value in the assay with NB4 cells [1] (retinoid at 0.1 +100 nM SR11237, 4 days) is <1%; in the assay with NB4 cells [1] (retinoid at 0.3 +100 nM SR11237, 4 days), 20%; in the assay on NB4 cells [1] (retinoid at 0.5 +100 nM SR11237, 4 days) it was 40%; with NB4 cells [1] (retinoid at 1 +100 nM SR11237, 4 days) it was 80%. Besides, the “Expression of RARβ2 (and RARγ) by RT-PCR” value in the assay on RARβ2 and RARγ mRNA is “induced expression of RARβ2 (and RARγ) was confirmed”.
Take `CC1=C(/C=C/C(C)=C\C=C\C(C)=C\C(=O)O)C(C)(C)CCC1` [Compound 9C-RA, 9-cis (9C-RA) retinoic acid]: the “Percentage of NB4 cells differentiated” value is <1% with NB4 cells [1] (setting [3]), 4% with NB4 cells [1] (setting [4]), 65% with NB4 cells [1] (setting [5]) and 70% with NB4 cells [1] (setting [6]).
For the molecule `CC1=C(/C=C/C(C)=C/C=C/C(C)=C/C(=O)O)C(C)(C)CCC1` [T-RA, all-trans retinoic acid], the “Percentage of NB4 cells differentiated” value is given as <1% in the assay on NB4 cells [1] (setting [3]), <1% in the assay on NB4 cells [1] (setting [4]), 81% with NB4 cells [1] (setting [5]) and 80% in the assay with NB4 cells [1] (setting [6]). Further, the “Induction of NB4 cell apoptosis” value in the assay with NB4 cells [2] was “extensive apoptosis”.
